Reference: patent US12133857B2, “Method for prolonging half-life of theanine in vivo” (Anhui Agricultural University, priority 2023, dated 2024)

Key:
in vivo [1] = conditions: rat, po, 500 mg/kg
Experimental: 1-deoxy-1-L-theanine-D-fructopyranose was recorded as a theanine glycoside 1, 1-deoxy-1-L-theanine-D-galactopyranose was recorded as a theanine glycoside 2, and 1-deoxy-1-L-theanine-D-ribopyranose was recorded as a theanine glycoside 3. • 1. Experimental animals: Male SD rats with the body weight of (180±20) g were used. • 2. Administration and sample collection: The rats were intragastrically administered (n=6), which were randomly divided into two groups, including a theanine group and a theanine glycoside group. The rats were subjected to fasting without limitation of water for 12 h before administration and then allowed to drink water after intragastric administration. The intragastric administration dose was 500 mg/kg. 1 h, 2 h, 4 h, 8 h and 12 h before and after the administration, 0.5 mL of blood was collected from eye sockets of 6 rats in each group, respectively. Blood samples were centrifuged at 3,000 g for 15 min, supernatants were separated to obtain plasma samples, and the plasma samples were stored at −80° C. • 3. Instrument conditions and determination of plasma samples:
(§1) Instrument: SCIEX Triple Quad™ 5500 LC-MS/MS was used.
Drawing of a standard curve: 100 μL of blank plasma of the rats was taken, added into 1.5 mL of a 70% methanol aqueous solution and mixed in vortex for 30 s, and a resulting mixture was subjected to ultrasonic treatment in an ice water bath for 10 min, followed by standing at −20° C. for 20 min to precipitate a protein. The protein was centrifuged briefly for 15 s for 2 times, and a supernatant was taken out, dried by a vacuum concentrator at 4° C. and redissolved with 200 μl of methanol. 200 μL of a series of standard solutions of a tested compound and 10 μL of an internal standard (DL-4-chlorophenylmethylamino) were sequentially added to prepare plasma samples of the tested compound with a plasma concentration of 0.1 μM, 1 μM, 10 μM, 100 μM, 1,000 μM and 10,000 μM respectively, followed by LC-MS/MS analysis. With the concentration of the tested compound (x) as the abscissa and the ratio of peak areas of the tested compound and the internal standard (y) as the ordinate, regression calculation was performed by a weighted least square method to obtain a linear regression equation, namely a standard curve. According to the standard curve, the linear range of the tested compound in the plasma of the rats was 0.1 μM-10,000 μM as determined by an LC-MS/MS method. […]
The half-life T1/2 was calculated according to formulas below: […]

in vivo [2] = conditions: mouse, po, 500 mg/kg
Experimental: 1-deoxy-1-L-theanine-D-fructopyranose was recorded as a theanine glycoside 1, 1-deoxy-1-L-theanine-D-galactopyranose was recorded as a theanine glycoside 2, and 1-deoxy-1-L-theanine-D-ribopyranose was recorded as a theanine glycoside 3. • 1. Experimental animals: Male C57BL/6J mice with the body weight of (20±2) g were used. • 2. Administration and sample collection: The mice were intragastrically administered (n=6), which were randomly divided into two groups, including a theanine group and a theanine glycoside group. The mice were subjected to fasting without limitation of water for 12 h before administration and then allowed to drink water after intragastric administration. The intragastric administration dose was 500 mg/kg. 1 h, 2 h, 4 h, 8 h and 12 h before and after the administration, 6 mice in each group were killed by cervical dislocation and then dissected to obtain brain tissues respectively, and the brain tissues were stored at −80° C. for subsequent detection. • 3. Instrument conditions and determination of brain tissue samples:
as §1
Drawing of a standard curve: 20 mg of blank brain tissues of the mice were taken, added into 1.5 mL of a 70% methanol aqueous solution and mixed in vortex for 30 s, and a resulting mixture was subjected to ultrasonic treatment in an ice water bath for 10 min, followed by standing at −20° C. for 20 min to precipitate a protein. The protein was centrifuged briefly for 15 s for 2 times, and a supernatant was taken out, dried by a vacuum concentrator at 4° C. and redissolved with 200 μL of methanol. 200 μl of a series of standard solutions of a tested compound and 10 μl of an internal standard (DL-4-chlorophenylmethylamino) were sequentially added to prepare brain tissue samples of the tested compound with a brain tissue concentration of 0.1 μM, 1 μM, 10 μM, 100 μM, 1,000 μM and 10,000 μM respectively, followed by LC-MS/MS analysis. With the concentration of the tested compound (x) as the abscissa and the ratio of peak areas of the tested compound and the internal standard (y) as the ordinate, regression calculation was performed by a weighted least square method to obtain a linear regression equation, namely a standard curve. According to the standard curve, the linear range of the tested compound in the plasma of the mice was 0.1 μM-10,000 μM as determined by an LC/MS/MS method. […]

SMILES | half-life (in vivo [1]; male, SD) [h] | half-life (in vivo [2]; male, C57BL/6J) [h] | T1/2 in the blood (in vivo [1]) [h] | T1/2 in the brain (in vivo [2]) [h]
CCNC(=O)CC[C@H](N)C(=O)O [Theanine, L-theanine] | 2.05 ± 0.12 | 2.07 ± 0.19 | – | –
CCNC(=O)CC[C@H](NC1O[C@H](CO)[C@H](O)[C@H](O)[C@H]1O)C(=O)O (stereo partly drawn) [Theanine glycoside 2, 1-deoxy-1-L-theanine-D-galactopyranose] | – | – | 19.94 ± 1.06 | 13.55 ± 1.55
CCNC(=O)CC[C@H](NCC1(O)OC[C@@H](O)[C@@H](O)[C@@H]1O)C(=O)O (stereo partly drawn) [Theanine glycoside 1, 1-deoxy-1-L-theanine-D-fructopyranose] | – | – | 25.70 ± 1.31 | 19.56 ± 1.54
CCNC(=O)CC[C@H](NC1OC[C@@H](O)[C@@H](O)[C@H]1O)C(=O)O (stereo partly drawn) [Theanine glycoside 3, 1-deoxy-1-L-theanine-D-ribopyranose] | – | – | 16.80 ± 1.93 | 10.85 ± 0.54
